We go through five molecules from patent US9676788B2, “Aza-epoxy-guaiane derivatives and treatment of cancer” (The United States of America, as represented by the …, priority 2014, dated 2017).

“And” between values parts separate entries of the source, which are not always exact repeats. Equal values may be shown once. Read-outs that look alike come from different tables or passages of the source.

One series has as its system HS 578T (breast cancer). Briefly: NCI 60-cell line protocol, Breast Cancer HS 578T. The format is cell-based, human. The conditions noted are these: SRB endpoint; for GI50: Homo sapiens, Hs-578T, 48 h, five 10-fold dilutions, two days exposure; for HS 578T one dose (%): one-dose protocol, single final concentration of 10 micromolar, two days.
A further series deals with A498 (renal cancer). As to the kind of experiment: NCI 60-cell line protocol, Renal Cancer A498. In kind it is cell-based, human. The conditions noted are these: SRB endpoint; for GI50: Homo sapiens, A498, 48 h, five 10-fold dilutions, two days exposure; for A498 one dose (%): one-dose protocol, single final concentration of 10 micromolar, two days.
Series [1] can be described thus: Plasma concentration in mice 30 minutes after oral gavage, by dose (LC-MS). In kind it is in vivo. The procedure:
Mice were dosed at 5 mg/kg, 10 mg/kg, 50 mg/kg, and 100 mg/kg compound 9 in Labrasol vehicle via oral gavage. 30 minutes after dosing, plasma was assayed for the concentration of compound 9 using LC-MS. The results are depicted graphically in FIG. 5.

The next series concerns ACHN (renal cancer). As to the kind of experiment: NCI 60-cell line protocol, Renal Cancer ACHN. In kind it is cell-based, human. The conditions noted are these: SRB endpoint; for GI50: Homo sapiens, ACHN, 48 h, five 10-fold dilutions, two days exposure; for ACHN one dose (%): one-dose protocol, single final concentration of 10 micromolar, two days.
The nature of series [2]: Plasma concentration in mice over time after oral gavage (LC-MS/MS). In kind it is in vivo. How it is done:
Ten mice were administered 50 mg/kg of compound 9 in Labrasol vehicle via oral gavage. Two mice at a time were sacrificed at the following time points: 5 min, 15 min, 1 h, 4 h, and 8 h. Plasma concentrations of compound 9 were measured by LC-MS/MS, and the results set forth in Table 4 and depicted graphically in FIG. 7.
It was subsequently discovered that an error was made in weighing out compound 9 for formulation of a 5 mg/mL solution in Labrasol. The underweight formulation was confirmed to be about 40% of the expected concentration.

The next series concerns MALME-3M. As to the kind of experiment: NCI 60-cell line protocol, Melanoma MALME-3M. The conditions noted are these: MALME-3M (Melanoma); single dose 10 μM; two days exposure; SRB endpoint.
The subject of the next series is SK-MEL-5. As to the kind of experiment: NCI 60-cell line protocol, Melanoma SK-MEL-5. The conditions noted are these: SK-MEL-5 (Melanoma); single dose 10 μM; two days exposure; SRB endpoint.
The next series relates to SK-MEL-2. As to the kind of experiment: NCI 60-cell line protocol, Melanoma SK-MEL-2. The conditions noted are these: SK-MEL-2 (Melanoma); single dose 10 μM; two days exposure; SRB endpoint.
In the next series the test system is RPMI-8226. As to the kind of experiment: NCI 60-cell line protocol, Leukemia RPMI-8226. The conditions noted are these: RPMI-8226 (Leukemia); single dose 10 μM; two days exposure; SRB endpoint.
Another series relates to CCRF-CEM. As to the kind of experiment: NCI 60-cell line protocol, Leukemia CCRF-CEM. The settings on record: single dose 10 μM, two days exposure, SRB endpoint.
For the next series, the system named is K-562. As to the kind of experiment: NCI 60-cell line protocol, Leukemia K-562. The settings on record: K-562 (Leukemia); single dose 10 μM; two days exposure; SRB endpoint.
In the next series the test system is MDA-MB-435. Briefly: NCI 60-cell line protocol, Melanoma MDA-MB-435. The settings on record: MDA-MB-435 (Melanoma); single dose 10 μM; two days exposure; SRB endpoint.
The subject of the next series is SA. As to the kind of experiment: NCI 60-cell line protocol, Leukemia SA. The conditions noted are these: single dose 10 μM, two days exposure, SRB endpoint. The format is cell-based, human.
Another series deals with M14. As to the kind of experiment: NCI 60-cell line protocol, Melanoma M14. The settings on record: single dose 10 μM, two days exposure, SRB endpoint.
For another series, the system named is UACC-62. Briefly: NCI 60-cell line protocol, Melanoma UACC-62. The conditions noted are these: UACC-62 (Melanoma); single dose 10 μM; two days exposure; SRB endpoint.
A further series deals with LOX IMVI. Briefly: NCI 60-cell line protocol, Melanoma LOX IMVI. The settings on record: single dose 10 μM, two days exposure, SRB endpoint.
The next series deals with SK-MEL-28. Briefly: NCI 60-cell line protocol, Melanoma SK-MEL-28. The conditions noted are these: SK-MEL-28 (Melanoma); single dose 10 μM; two days exposure; SRB endpoint.
The next series has as its system UACC-257. As to the kind of experiment: NCI 60-cell line protocol, Melanoma UACC-257. The conditions noted are these: UACC-257 (Melanoma); single dose 10 μM; two days exposure; SRB endpoint.
The test system of a further series is MOLT-4. As to the kind of experiment: NCI 60-cell line protocol, Leukemia MOLT-4. The conditions noted are these: MOLT-4 (Leukemia); single dose 10 μM; two days exposure; SRB endpoint. The format is cell-based, human.
The subject of a further series is HL-60(fB). As to the kind of experiment: NCI 60-cell line protocol, Leukemia HL-60(fB). In kind it is cell-based, human. The settings on record: HL-60(fB) (Leukemia); single dose 10 μM; two days exposure; SRB endpoint.

The GI50 is the concentration giving 50% growth inhibition. A higher GI50 goes with less potent growth inhibition. In general, AUC(0-t) refers to exposure summed from dosing to a finite time, without extrapolation to infinity. A lower AUC(0-t) goes with low exposure.

Method for CCRF-CEM: (§1) Samples were tested in the standard National Cancer Institute 60-cell line protocol. First, they were tested against all 60 cell lines in a single final concentration of 10 micromolar. Then, they were separately tested in five 10-fold dilutions. The drug exposure was for two days, with an SRB endpoint.
(§2) Samples were tested in the standard National Cancer Institute 60-cell line protocol. The dosing protocol was a single dose of the compound at 10 μM concentration.
Method for K-562: as §1, §2
Method for LOX IMVI: as §1, §2
Method for M14: as §1, §2
Method for MALME-3M: as §1, §2
Method for MDA-MB-435: as §1, §2
Method for RPMI-8226: as §1, §2
Method for SK-MEL-28: as §1, §2
Method for SK-MEL-5: as §1, §2
Method for UACC-257: as §1, §2
Method for UACC-62: as §1, §2

Turning to `CC1CCC2C1C(OC(=O)/C=C/c1ccccc1)C1(C(C)C)CC(NC(=O)CO)C2(C)O1` (centres unmarked) [Compound 9], the GI50 in the series with HS 578T (breast cancer) was 830 nM; in the series with A498 (renal cancer), 160 nM; with ACHN (renal cancer), 4000 nM. The “HS 578T one dose (%)” value in the series on HS 578T (breast cancer) is listed as 9.45%. Moreover, the “A498 one dose (%)” value with A498 (renal cancer) is −15.20%. Moreover, in [1] (mouse, plasma, 100 mg/kg oral gavage in Labrasol, 30 minutes after dosing), the concentration at 30 min is around 700 ng/mL. The oral bioavailability entry in series [1] (oral gavage 5-100 mg/kg in Labrasol) is on record as “orally bioavailable”; in series [2] (mice, oral gavage 50 mg/kg in Labrasol) it was “orally bioavailable”. For the same molecule, in the series on ACHN (renal cancer), the “ACHN one dose (%)” value came to 8.01%. The “[Aza-Englerin] (ng/mL), single animal” value in series [2] (mice plasma, 50 mg/kg oral gavage in Labrasol, time 0.0833 hr, 50 mg/kg) was 13.20 ng/mL; in series [2] (mice plasma, 50 mg/kg oral gavage in Labrasol, time 0.2500 hr, 50 mg/kg) it was 22.76 ng/mL and 58.70 ng/mL; in series [2] (mice plasma, 50 mg/kg oral gavage in Labrasol, time 1.0000 hr, 50 mg/kg) it was 59.24 ng/mL; in series [2] (mice plasma, 50 mg/kg oral gavage in Labrasol, time 4.0000 hr, 50 mg/kg), 31.12 ng/mL and 86.81 ng/mL; in [2] (mice plasma, 50 mg/kg oral gavage in Labrasol, time 8.0000 hr, 50 mg/kg), 48.21 ng/mL. Further, the absorption entry in series [2] (mice, oral gavage in Labrasol) is on record as “rapidly absorbed”. Besides, in series [2] (mice, oral gavage in Labrasol), the “time for which plasma concentrations are sustained” value is “greater than 8 h”. Further, the concentration at 5 min in [2] (mouse, plasma, po, 50 mg/kg, mice plasma, 50 mg/kg oral gavage in Labrasol, time 0.0833 hr, mean of two mice, read-out: [Aza-Englerin] Mean) is 10 ng/mL; in series [2] (mouse, plasma, po, 50 mg/kg, mice plasma, 50 mg/kg oral gavage in Labrasol, time 0.0833 hr, read-out: [Aza-Englerin] (ng/mL), single animal), 6.87 ng/mL. In [2] (mouse, plasma, po, 50 mg/kg, mice plasma, 50 mg/kg oral gavage in Labrasol, time 0.2500 hr, mean of two mice, read-out: [Aza-Englerin] Mean), the concentration at 0.25 h turned out to be 40.7 ng/mL. Moreover, the concentration at 1 h worked out at 73.2 ng/mL in series [2] (mouse, plasma, po, 50 mg/kg, mice plasma, 50 mg/kg oral gavage in Labrasol, time 1.0000 hr, mean of two mice, read-out: [Aza-Englerin] Mean) and 87.2 ng/mL in series [2] (mouse, plasma, po, 50 mg/kg, mice plasma, 50 mg/kg oral gavage in Labrasol, time 1.0000 hr, read-out: [Aza-Englerin] (ng/mL), single animal). In [2] (mouse, plasma, po, 50 mg/kg, mice plasma, 50 mg/kg oral gavage in Labrasol, time 4.0000 hr, mean of two mice, read-out: [Aza-Englerin] Mean), the concentration at 4 h was determined as 59 ng/mL. Moreover, the concentration at 8 h in series [2] (mouse, plasma, po, 50 mg/kg, mice plasma, 50 mg/kg oral gavage in Labrasol, time 8.0000 hr, mean of two mice, read-out: [Aza-Englerin] Mean) came out at 67.8 ng/mL; in [2] (mouse, plasma, po, 50 mg/kg, mice plasma, 50 mg/kg oral gavage in Labrasol, time 8.0000 hr, read-out: [Aza-Englerin] (ng/mL), single animal), 87.3 ng/mL. In addition, in series [2] (mouse, mice plasma, 50 mg/kg oral gavage in Labrasol, SE=97.3 hr*ng/mL), the AUC(0-t) was determined as 524 ng·h/mL.
`C/C(=C\C(=O)OC1C2C(C)CCC2C2(C)OC1(C(C)C)CC2NC(=O)CO)c1ccccc1` (centres unmarked) [Compound 10]: the “Growth Percent” value in the series with MALME-3M is reported as 95.9%; with SK-MEL-5 it was 101.11%; with SK-MEL-2, 104.13%; in the series with RPMI-8226, 125.43%; in the series with CCRF-CEM it was 94.07%; in the series with K-562, 92.32%. For the same molecule, the “Growth Percent” value in the series with MDA-MB-435 was determined as 105.86%; in the series on SA, 117.13%; in the series on M14 it was 100.16%; with UACC-62 it was 101.83%; with LOX IMVI, 100.2%; in the series with SK-MEL-28 it was 117.95%. In the series with UACC-257, the “Growth Percent” value worked out at 92.39%. The values for the GI50 with HS 578T (breast cancer), in the series on A498 (renal cancer) and with ACHN (renal cancer) were 2200 nM, 1100 nM and 3300 nM, respectively. The “HS 578T one dose (%)” value in the series with HS 578T (breast cancer) is given as −8.92%. In addition, the “A498 one dose (%)” value with A498 (renal cancer) is listed as −24.59%. The “ACHN one dose (%)” value in the series with ACHN (renal cancer) turned out to be 27.88%.
For the molecule `CC(C)[C@@]12C[C@@H](NC(=O)CO)[C@@](C)(O1)[C@@H]1CC[C@@H](C)[C@H]1[C@@H]2OC(=O)/C=C/C1CCCCC1` [Compound 11], in the series on HS 578T (breast cancer), halving of growth (GI50) required 6200 nM and the “HS 578T one dose (%)” value is 73.09%. For the same molecule, in the series with A498 (renal cancer), the GI50 was 5600 nM and the “A498 one dose (%)” value is recorded as 41.34%. Besides, in the series on ACHN (renal cancer), the GI50 stood at 17000 nM and the “ACHN one dose (%)” value came to 99.90%.
Consider `CC(C)[C@@]12C[C@@H](NC(=O)CO)[C@@](C)(O1)[C@@H]1CC[C@@H](C)[C@H]1[C@@H]2OC(=O)c1ccc2ccccc2c1` [Compound 12], for which, in the series with HS 578T (breast cancer), growth was halved (GI50) at 2200 nM and the “HS 578T one dose (%)” value is listed as −18.26%. Moreover, in the series with A498 (renal cancer), the GI50 is 1600 nM and the “A498 one dose (%)” value was −15.23%. In addition, in the series with ACHN (renal cancer), the GI50 came out at 5400 nM and the “ACHN one dose (%)” value was 8.40%.
In the case of `CC1CCC2C1C(OC(=O)/C=C/c1ccccc1)C1(C(C)C)CC(NC(=O)CF)C2(C)O1` (centres unmarked) [Compound 31], the “Growth Percent” value in the series on MOLT-4 was 96.46%; with HL-60(fB) it was 104.52%; in the series with MALME-3M, 106.46%; in the series on SK-MEL-5 it was 110.24%; with SK-MEL-2 it was 116.95%; in the series on RPMI-8226, 94.34%. Besides, the “Growth Percent” value in the series on CCRF-CEM is 88.63%; in the series with K-562 it was 106.42%; in the series on MDA-MB-435, 106.48%; in the series with SA it was 85.46%; with M14, 96.67%; in the series on UACC-62, 99.56%. The “Growth Percent” value turned out to be 102.48% in the series on LOX IMVI, 109.79% with SK-MEL-28 and 104.8% with UACC-257. The “HS 578T one dose (%)” value with HS 578T (breast cancer) stood at 92.63%. Moreover, the “A498 one dose (%)” value with A498 (renal cancer) was 83.31%. Also, the “ACHN one dose (%)” value in the series with ACHN (renal cancer) was found to be 104.52%.
